Consider one compound from ChEMBL document CHEMBL4145452, “Polymeric bile acid sequestrants: Review of design, in vitro binding activities, and hypocholesterolemic effects” (Eur J Med Chem, 2018).

The species entered for this test is Homo sapiens. As to the kind of experiment: Hypocholesterolemic effect in hypercholesterolemia patient assessed as decrease in LDL cholesterol level. The arrangement: scale not given: the % may be the effect or the level left. The class given is functional.

`CC[C@H](C)C(=O)O[C@H]1C[C@@H](C)C=C2C=C[C@H](C)[C@H](CC[C@@H]3C[C@@H](O)CC(=O)O3)[C@H]21` [LOVASTATIN]: the Activity is 22%.
